{"source": "patent US20260335388A1", "about": "“COMBINATION THERAPIES WITH ONCOLYTIC ADENOVIRUS AND TOPOISOMERASE I INHIBITORS OR PRODRUGS THEREOF” (priority 2022, published 2026)", "key": {"[1]": {"system": "s.c. retinoblastomas (Y79 and RBT-7)", "test": "VCN-01 genomes in s.c. xenografts (Y79 and RBT-7)", "assay_type": "in vivo, mouse", "protocol": "To quantify genome copies of VCN-01 in cell cultures or mouse tissues, total DNA was extracted and real time quantitative polymerase chain reactions (RT-qPCR) was performed as described (Cascallo et al., “Systemic toxicity-efficacy profile of ICOVIR-5, a potent and selective oncolytic adenovirus based on the pRB pathway,” Mol Ther 2007; 15(9):1607-15).\nIntratumoral infection of VCN-01. S.c. tumors were established in athymic nude mice. Upon xenograft engraftment, mice received one intratumoral injection of VCN-01, alone or combined with one cycle of topotecan, […], or hydroxyurea. At 5 and 15 days after VCN-01 inoculation, genome copies of VCN-01 were quantified in the tumors and immunostained for E1A and E2F-1.\nTo establish s.c. tumors, 10^6 retinoblastoma cells suspended in 25 µL matrigel (Corning, Glendale, AZ, USA) were injected in athymic nude mice. Upon xenograft engraftment (tumor volumes ranging 100-200 mm^3), treatments were started. Mice received VCN-01 (3×10^9 vp in 20 µL vehicle, single intratumoral injection at day 1), alone or combined with one cycle of topotecan (0.6 mg/kg, intraperitoneal -i.p.-, daily at days 1-5), […] (40 mg/kg, i.p, one single dose at day 1), or hydroxyurea (200 mg/kg, i.p., daily at days 1-5). […] In tumor homogenates, genome copies of VCN-01 were quantified. […]"}, "[2]": {"system": "HSJD-RBT-5 retinoblastoma cells", "test": "cells", "assay_type": "cell-based", "settings": "Homo sapiens"}, "[3]": {"system": "RBT-7 intracerebral tumors", "test": "Brain analyses at end of treatment, CNS-disseminated retinoblastoma", "assay_type": "in vivo, mouse", "settings": "end of treatment (FIG. 22G)"}, "E2F-1": {"system": "E2F-1", "test": "E2F-1 immunostaining in intraocular Y79 tumors", "assay_type": "in vivo, mouse", "settings": "mice with intraocular Y79 tumors, vs untreated (FIG. 17E)"}, "RBT-7 xenografts": {"system": "RBT-7 xenografts", "test": "Ocular survival, RBT-7 intraocular xenografts", "assay_type": "in vivo, mouse", "settings": "control 35 days; combination P<0.0001 (FIG. 20C)", "protocol": "Antitumor activity in retinoblastoma. For orthotopic intraocular engraftments 2×10^5 retinoblastoma cells were inoculated per eye, in 2 μL matrigel (Pascual-Pasto et al., 2016). To obtain s.c. xenografts 10^6 cells were injected in 25 μl matrigel. For ocular tumors, treatments were started at day 8 after inoculation (when tumors were appreciable by fundus examination). For s.c. tumors, treatments were started when volumes achieved 100-300 mm^3 (day 1). After treatments, the survivors were followed up until endpoint and the median survival of each group was calculated, as described previously (Mandigo et al., 2022; Rodríguez-García et al., 2015).\nIn a second experiment, the sequence of administration of one injection of VCN-01 and one 5-day cycle of topotecan was addressed. Mice with intraocular tumors (Y79 or RBT-7) received either topotecan 0.6 mg/kg, i.p. on days 8-12, one intravitreal injection of VCN-01 (3×10^8 vp) on day 8, or the combination of topotecan and VCN-01. Y79-bearing mice also received a switched treatment sequence, with VCN-01 on day 12, after the last dose of topotecan."}, "[4]": {"system": "Y79 cells and primary retinoblastoma cultures", "assay_type": "cell-based"}, "[5]": {"system": "RBT-7 intracerebral tumors", "test": "Antitumor activity in CNS-disseminated retinoblastoma", "assay_type": "in vivo, mouse", "settings": "control 22 days; P of combination vs control 0.0004, topotecan 0.0072, standard of care 0.0040, VCN-01 0.0372; animals dying of toxicity excluded (FIG. 22C)", "description": "Antitumor activity in CNS-disseminated retinoblastoma. A model of retinoblastoma dissemination was established in the leptomeninges of the CNS. Anesthetized mice were restrained in a stereotactic apparatus (Stoelting, Wood Dale, IL, USA). Using a mouse brain atlas (Paxinos and Franklin, “The mouse brain in stereotaxic coordinates,” San Diego: Academic Press; 2001), the coordinates of the fourth ventricle were located and the surface of the skull was drilled. Then, […] (RBT-7) in 10 µL matrigel was injected with a dull 22G needle attached to a 50 µL syringe (Hamilton, Bonaduz, Switzerland). One week later, treatments were started with VCN-01 (3×10^9 vp in 20 µL vehicle, intraventricular, day 8), topotecan (0.6 mg/kg, i.p., days 8-12), SoC chemotherapy ([…], 40 mg/kg, i.p., day 8, and etoposide, 6 mg/kg, i.p., days 8-10) or the combination of VCN-01 and chemotherapies. The control group received the vehicle of VCN-01 (intraventricular). Animals achieved experimental endpoints upon deterioration of condition or 20% weight loss. Brains collected at endpoint were embedded in paraffin and stained with hematoxylin and eosin (H&E), human nuclei (MAB4383, 1:200, Millipore), viral protein E1A (ab33183, 1:200, Abcam) and CD45 (leukocyte common antigen; 70257, 1:200, Cell Signaling)."}, "E2F-1, p21 and cyclin E1": {"system": "E2F-1, p21 and cyclin E1", "assay_type": "cell-based"}, "E1a": {"system": "E1a", "test": "Immunoblot of E1a / E2F-1 in VCN-01-infected Y79 cells with further chemotherapeutics", "assay_type": "cell-based", "protocol": "2 million Y79 retinoblastoma cells were infected with 50 MOIs of VCN-01. […] Etoposide is topoisomerase 2 inhibitor.\nIn all experiments, 6-well culture plates containing 2×10^6 cells were used. […] The experiments were controlled by adding culture medium instead of the second treatment. […] The analyses were expanded to other chemotherapeutic agents including hydroxyurea ([…]), etoposide (2 μM), irinotecan (10 μM) or SN-38 (1 μM).\nNear-infrared labeled secondary antibodies (Odyssey CLx, LI-COR Inc. Bad Homburg, Germany) were used for detection."}}, "note": "Where two headings read alike, the source gives them in different places.", "data": [{"smiles": "CC[C@@]1(O)C(=O)OCc2c1cc1n(c2=O)Cc2cc3c(CN(C)C)c(O)ccc3nc2-1", "note": "[Topotecan, topotecan]", "values": [{"measurement": "counts of viral genomes, 5 days", "setting": "[1]; 5 days after intratumoral VCN-01 (FIG. 18G)", "value": "higher counts of viral genomes"}, {"measurement": "counts of viral genomes, 15 days", "setting": "[1]; 15 days after intratumoral VCN-01 (FIG. 19B)", "value": "Different counts of viral genomes were not observed"}, {"measurement": "IC50", "setting": "[2]; read-out: IC50, Topotecan single agent", "value": 0.0879, "unit": "µM"}, {"measurement": "IC50", "setting": "[2]; read-out: IC50, Topotecan with VCN-01 (10 MOI)", "value": 0.586, "unit": "µM"}, {"measurement": "expression of CDKN1A in brain homogenates", "setting": "[3]", "value": "highest expression of CDKN1A"}, {"measurement": "E2F-1 expression in cancer cells", "setting": "E2F-1", "value": "higher in the animals treated with topotecan"}, {"measurement": "median survival", "setting": "RBT-7 xenografts", "value": 39, "unit": "days"}, {"measurement": "transgene expression, virus first", "setting": "[4]; cells pre-infected with AdTLRGDK (FIG. 18E, FIG. 19A)", "value": "increased transgene expression"}, {"measurement": "viral transduction, drug first", "setting": "[4]; drug exposure before viral infection (FIG. 18E)", "value": "did not enhance viral transduction"}, {"measurement": "median survival", "setting": "[5]", "value": 28, "unit": "days"}, {"measurement": "duration of E2F-1, p21 and cyclin E1 increase", "setting": "E2F-1, p21 and cyclin E1; FIG. 17D", "value": "at least 48 h"}, {"measurement": "protein expression of E2F-1, p21 and cyclin E1", "setting": "E2F-1, p21 and cyclin E1; Y79 cells (FIG. 17D)", "value": "increased protein expression of E2F-1, p21 and cyclin E1"}, {"measurement": "onset of E2F-1, p21 and cyclin E1 increase", "setting": "E2F-1, p21 and cyclin E1; after exposure (FIG. 17D)", "value": 1, "unit": "h"}, {"measurement": "expression of VCN-01 proteins (E1a)", "setting": "E1a; VCN-01 50 MOI, drug added at 24 h, lysis at 48 h (FIG. 7)", "value": "similarly to topotecan"}, {"measurement": "expression of E2F-1 and E1A", "setting": "E1a; Y79 cells pre-exposed to VCN-01 (FIG. 13H)", "value": "increased the expression of E2F-1 and E1A similarly to topotecan"}]}]}
